Data taken from patent US7981903B2, “2-[2-{phenylamino}-1H-pyrrolo[2,3-D]pyrimidin-4-yl)amino] benzamide derivatives as IGF-1R inhibitors for the treatment of cancer” (GlaxoSmithKline LLC, priority 2007, dated 2011).

Assays:
ALK = ALK (Homo sapiens, UniProt Q9UM73); assay: ALK enzyme assay (HTRF); assay type: biochemical; details: 0.25 nM ALK, 15.0 μM ATP, values given as pIC50 category
In short: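 Final compound range 0.00017 to 10 μM (twelve 1:3 dilutions). Kinase reaction with ATP and biotinylated synthetic peptide runs 120 min at 20° C, stopped with EDTA; phosphotyrosine detected by HTRF after 60 min. Inhibition referenced to DMSO (1%) and EDTA (0.1 M) controls, curve-fitted.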

Colo205 = assay: Inhibition of cell proliferation (CellTiter-Glo or InCell analyzer), Colo205; assay type: cell-based; details: Homo sapiens, COLO 205, 72 h / 3 days, values given as IC50 category
In short: In one

NCI-H929 = assay: Inhibition of cell proliferation (CellTiter-Glo or InCell analyzer), NCI-H929; assay type: cell-based; details: Homo sapiens, 72 h / 3 days, values given as IC50 category
In short: In one

[1] = target: T1, NIH-3T3 cells overexpressing human IR (Homo sapiens, UniProt P06213); assay: IR cellular autophosphorylation (DELFIA); assay type: cell-based; details: 2 h compound, insulin 3 ug/ml for 15 minutes, IC50 category
T1 construct: expressed in transfected cells; host or cells: NIH-3T3 (mouse fibroblasts)
T1 sequence (P06213 28-1382): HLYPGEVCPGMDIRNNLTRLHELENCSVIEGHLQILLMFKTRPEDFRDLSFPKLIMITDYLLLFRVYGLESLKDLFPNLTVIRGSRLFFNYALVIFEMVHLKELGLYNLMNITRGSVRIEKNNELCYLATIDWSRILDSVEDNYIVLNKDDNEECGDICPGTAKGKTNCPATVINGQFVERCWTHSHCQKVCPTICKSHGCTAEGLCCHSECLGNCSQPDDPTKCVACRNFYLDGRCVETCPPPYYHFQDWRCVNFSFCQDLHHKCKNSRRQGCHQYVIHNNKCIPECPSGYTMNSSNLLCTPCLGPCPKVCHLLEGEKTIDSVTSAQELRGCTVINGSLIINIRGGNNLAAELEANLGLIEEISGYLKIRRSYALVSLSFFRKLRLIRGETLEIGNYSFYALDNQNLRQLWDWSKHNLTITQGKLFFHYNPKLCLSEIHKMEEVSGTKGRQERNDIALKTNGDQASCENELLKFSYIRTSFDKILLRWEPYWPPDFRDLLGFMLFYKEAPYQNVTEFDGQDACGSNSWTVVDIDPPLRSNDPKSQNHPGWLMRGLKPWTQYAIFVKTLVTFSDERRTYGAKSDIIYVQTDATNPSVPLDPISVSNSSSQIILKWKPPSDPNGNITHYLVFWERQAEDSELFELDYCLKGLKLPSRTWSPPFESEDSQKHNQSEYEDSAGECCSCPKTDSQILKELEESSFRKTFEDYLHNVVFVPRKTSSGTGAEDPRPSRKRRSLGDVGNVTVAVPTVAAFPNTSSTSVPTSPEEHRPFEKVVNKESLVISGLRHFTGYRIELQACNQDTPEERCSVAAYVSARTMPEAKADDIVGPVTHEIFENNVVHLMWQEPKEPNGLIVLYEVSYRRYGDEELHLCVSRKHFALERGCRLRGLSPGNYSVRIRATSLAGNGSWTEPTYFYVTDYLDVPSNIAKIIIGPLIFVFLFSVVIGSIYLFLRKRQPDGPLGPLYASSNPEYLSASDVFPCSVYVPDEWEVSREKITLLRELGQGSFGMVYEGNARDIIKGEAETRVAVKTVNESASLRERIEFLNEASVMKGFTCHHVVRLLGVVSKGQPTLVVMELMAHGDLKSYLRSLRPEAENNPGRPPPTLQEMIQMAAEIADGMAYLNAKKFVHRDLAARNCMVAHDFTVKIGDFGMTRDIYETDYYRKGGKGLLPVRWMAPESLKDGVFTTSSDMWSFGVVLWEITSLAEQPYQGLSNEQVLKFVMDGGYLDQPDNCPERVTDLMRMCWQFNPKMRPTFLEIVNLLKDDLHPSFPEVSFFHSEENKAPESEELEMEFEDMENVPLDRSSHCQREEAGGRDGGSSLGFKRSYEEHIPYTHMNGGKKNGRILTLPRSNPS
In short: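 Receptor autophosphorylation measured by DELFIA, capturing IGF-1R or IRβ and detecting with europium anti-pTyr, reported as percent of IGF-1- or insulin-stimulated signal. Compounds (30 uM to 1.5 nM) added 2 h before ligand, then 15 min stimulation (IGF-1 30 ng/ml or insulin 3 ug/ml).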

Chain of ALK (Q9UM73 19-1620): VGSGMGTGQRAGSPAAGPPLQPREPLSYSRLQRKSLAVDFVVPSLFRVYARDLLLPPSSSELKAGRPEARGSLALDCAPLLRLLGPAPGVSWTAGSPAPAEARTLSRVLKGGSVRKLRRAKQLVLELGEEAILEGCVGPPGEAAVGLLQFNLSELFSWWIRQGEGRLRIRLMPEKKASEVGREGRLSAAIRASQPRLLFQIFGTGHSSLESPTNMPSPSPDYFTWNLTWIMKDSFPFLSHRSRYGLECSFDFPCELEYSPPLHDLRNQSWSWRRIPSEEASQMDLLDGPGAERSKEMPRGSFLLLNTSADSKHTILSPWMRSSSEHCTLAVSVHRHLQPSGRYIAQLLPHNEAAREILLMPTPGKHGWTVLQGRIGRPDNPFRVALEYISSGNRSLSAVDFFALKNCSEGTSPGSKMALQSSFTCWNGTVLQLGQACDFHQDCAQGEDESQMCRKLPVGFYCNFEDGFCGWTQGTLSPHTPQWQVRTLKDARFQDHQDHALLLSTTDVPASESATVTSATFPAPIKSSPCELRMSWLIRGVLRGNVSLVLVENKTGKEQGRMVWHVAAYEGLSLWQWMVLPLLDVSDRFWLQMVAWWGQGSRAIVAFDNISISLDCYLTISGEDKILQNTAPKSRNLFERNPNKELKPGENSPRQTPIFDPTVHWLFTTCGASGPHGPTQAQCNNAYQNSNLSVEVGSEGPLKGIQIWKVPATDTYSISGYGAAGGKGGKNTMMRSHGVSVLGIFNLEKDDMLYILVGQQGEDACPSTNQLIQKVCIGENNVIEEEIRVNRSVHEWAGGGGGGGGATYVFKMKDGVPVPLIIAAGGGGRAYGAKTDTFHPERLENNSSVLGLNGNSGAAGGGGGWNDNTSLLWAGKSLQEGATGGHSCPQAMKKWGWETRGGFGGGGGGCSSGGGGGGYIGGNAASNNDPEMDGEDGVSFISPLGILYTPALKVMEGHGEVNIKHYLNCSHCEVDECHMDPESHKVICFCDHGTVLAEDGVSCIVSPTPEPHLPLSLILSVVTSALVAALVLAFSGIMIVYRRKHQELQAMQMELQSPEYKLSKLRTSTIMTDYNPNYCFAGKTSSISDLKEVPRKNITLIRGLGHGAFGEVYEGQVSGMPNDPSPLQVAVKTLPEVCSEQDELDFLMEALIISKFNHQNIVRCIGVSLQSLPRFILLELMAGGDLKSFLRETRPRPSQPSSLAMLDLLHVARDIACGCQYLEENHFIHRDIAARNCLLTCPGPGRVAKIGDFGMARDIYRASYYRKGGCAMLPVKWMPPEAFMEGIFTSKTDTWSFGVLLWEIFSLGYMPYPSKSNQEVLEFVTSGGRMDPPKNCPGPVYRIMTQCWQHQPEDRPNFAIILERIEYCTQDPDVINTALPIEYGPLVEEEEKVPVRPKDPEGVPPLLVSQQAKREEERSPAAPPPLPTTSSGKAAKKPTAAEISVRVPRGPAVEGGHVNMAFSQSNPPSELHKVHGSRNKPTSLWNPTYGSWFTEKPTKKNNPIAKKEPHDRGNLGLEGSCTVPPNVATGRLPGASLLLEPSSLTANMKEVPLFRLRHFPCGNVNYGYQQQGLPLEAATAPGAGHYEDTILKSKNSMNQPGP

Structure (SMILES) | IC50 (ALK) [nM] | IC50 (Colo205) [nM] | IC50 (NCI-H929) [nM] | IC50 [1] [nM]
COc1c(Nc2nc(Nc3cccc(F)c3C(N)=O)c3cc[nH]c3n2)ccc(N2CCN(C(C)C)CC2)c1F [Example 51, 2-fluoro-6-[(2-{[3-fluoro-4-[4-(1-methylethyl)-1-piperazinyl]-2-(methyloxy)phenyl]amino}-1H-pyrrolo[2,3-d]pyrimidin-4-yl)amino]benzamide] | 1.26 to 3.98 | 250 to 1000 | 250 to 1000 | > 500
COc1cc(N2CCN(CCS(C)(=O)=O)CC2)c(C)cc1Nc1nc(Nc2cccc(F)c2C(N)=O)c2cc[nH]c2n1 [Example 52, 2-fluoro-6-({2-[(5-methyl-2-(methyloxy)-4-{4-[2-(methylsulfonyl)ethyl]-1-piperazinyl}phenyl)amino]-1H-pyrrolo[2,3-d]pyrimidin-4-yl}amino)benzamide] | 1.26 to 3.98 | > 1000 | 250 to 1000 | > 500
CCCN1CCC=C(c2ccc(Nc3nc(Nc4cc(F)ccc4C(N)=O)c4cc[nH]c4n3)c(OC)c2)C1 [Example 70, 4-fluoro-2-[(2-{[2-(methyloxy)-4-(1-propyl-1,2,5,6-tetrahydro-3-pyridinyl)phenyl]amino}-1H-pyrrolo[2,3-d]pyrimidin-4-yl)amino]benzamide] | 0.251 to 1 | < 250 | < 250 | < 100
COc1cc(N2CCN(CC3CC3)CC2)ccc1Nc1nc(Nc2cc(F)ccc2C(N)=O)c2cc[nH]c2n1 [Example 81, 2-[(2-{[4-[4-(cyclopropylmethyl)-1-piperazinyl]-2-(methyloxy)phenyl]amino}-1H-pyrrolo[2,3-d]pyrimidin-4-yl)amino]-4-fluorobenzamide] | 0.251 to 1 | < 250 | < 250 | 100 to 500
COc1cc(N2CCOCC2)ccc1Nc1nc(Nc2cc(F)ccc2C(N)=O)c2cc[nH]c2n1 [Example 83, 4-fluoro-2-[(2-{[2-(methyloxy)-4-(4-morpholinyl)phenyl]amino}-1H-pyrrolo[2,3-d]pyrimidin-4-yl)amino]benzamide] | 5.01 to 200 | > 1000 | 250 to 1000 | < 100
COc1cc(N2CCC(N3CCN(S(C)(=O)=O)CC3)CC2)ccc1Nc1nc(Nc2cccc(F)c2C(N)=O)c2cc[nH]c2n1 [Example 113, 2-fluoro-6-({2-[(2-(methyloxy)-4-{4-[4-(methylsulfonyl)-1-piperazinyl]-1-piperidinyl}phenyl)amino]-1H-pyrrolo[2,3-d]pyrimidin-4-yl}amino)benzamide] | 0.251 to 1 | < 250 | < 250 | 100 to 500
COc1cc(N2CCC(N3CCN(CCF)CC3)CC2)ccc1Nc1nc(Nc2cccc(F)c2C(N)=O)c2cc[nH]c2n1 [Example 114, 2-fluoro-6-[(2-{[4-{4-[4-(2-fluoroethyl)-1-piperazinyl]-1-piperidinyl}-2-(methyloxy)phenyl]amino}-1H-pyrrolo[2,3-d]pyrimidin-4-yl)amino]benzamide] | 1.26 to 3.98 | < 250 | < 250 | < 100
COc1cc(N2CCC(N3CCN(CCS(C)(=O)=O)CC3)CC2)ccc1Nc1nc(Nc2cccc(F)c2C(N)=O)c2cc[nH]c2n1 [Example 115, 2-fluoro-6-[(2-{[2-(methyloxy)-4-(4-{4-[2-(methylsulfonyl)ethyl]-1-piperazinyl}-1-piperidinyl)phenyl]amino}-1H-pyrrolo[2,3-d]pyrimidin-4-yl)amino]benzamide] | 0.251 to 1 | < 250 | < 250 | 100 to 500
COc1cc2c(cc1Nc1nc(Nc3cccc(F)c3C(N)=O)c3cc[nH]c3n1)CN(C(=O)CN(C)C)CC2 [Example 123, 2-[(2-{[2-(N,N-dimethylglycyl)-6-(methyloxy)-1,2,3,4-tetrahydro-7-isoquinolinyl]amino}-1H-pyrrolo[2,3-d]pyrimidin-4-yl)amino]-6-fluorobenzamide] | 1.26 to 3.98 | 250 to 1000 | < 250 | 100 to 500
CCNC(=O)c1c(F)cccc1Nc1nc(Nc2cc3c(cc2OC)CCN3C(=O)CN(C)C)nc2[nH]ccc12 [Example 126, 2-[(2-{[1-(N,N-dimethylglycyl)-5-(methyloxy)-2,3-dihydro-1H-indol-6-yl]amino}-1H-pyrrolo[2,3-d]pyrimidin-4-yl)amino]-N-ethyl-6-fluorobenzamide] | 0.251 to 1 | 250 to 1000 | < 250 | 100 to 500
CNC(=O)c1c(F)cccc1Nc1nc(Nc2cc3c(cc2OC)C(C)(C)CN3C(=O)CN(C)C)nc2[nH]ccc12 [Example 127, 2-[(2-{[1-(N,N-dimethylglycyl)-3,3-dimethyl-5-(methyloxy)-2,3-dihydro-1H-indol-6-yl]amino}-1H-pyrrolo[2,3-d]pyrimidin-4-yl)amino]-6-fluoro-N-methylbenzamide] | 0.251 to 1 | 250 to 1000 | < 250 | < 100
CCN(CC)CC(=O)N1CCc2cc(OC)c(Nc3nc(Nc4cccc(F)c4C(N)=O)c4cc[nH]c4n3)cc21 [Example 136, 2-[(2-{[1-(N,N-diethylglycyl)-5-(methyloxy)-2,3-dihydro-1H-indol-6-yl]amino}-1H-pyrrolo[2,3-d]pyrimidin-4-yl)amino]-6-fluorobenzamide] | 1.26 to 3.98 | 250 to 1000 | < 250 | < 100
COc1cc2c(cc1Nc1nc(Nc3cccc(F)c3C(N)=O)c3cc[nH]c3n1)N(C(=O)CN1CCCC1)CC2 [Example 138, 2-fluoro-6-[(2-{[5-(methyloxy)-1-(1-pyrrolidinylacetyl)-2,3-dihydro-1H-indol-6-yl]amino}-1H-pyrrolo[2,3-d]pyrimidin-4-yl)amino]benzamide] | 1.26 to 3.98 | 250 to 1000 | < 250 | < 100
CNC(=O)c1c(F)cccc1Nc1nc(Nc2cc3c(cc2OC)CCN3C(=O)CN2CCCC2)nc2[nH]ccc12 [Example 139, 2-fluoro-N-methyl-6-[(2-{[5-(methyloxy)-1-(1-pyrrolidinylacetyl)-2,3-dihydro-1H-indol-6-yl]amino}-1H-pyrrolo[2,3-d]pyrimidin-4-yl)amino]benzamide] | 0.251 to 1 | 250 to 1000 | < 250 | 100 to 500
COc1cc2c(cc1Nc1nc(Nc3cccc(F)c3C(N)=O)c3cc[nH]c3n1)N(C(=O)CN)CC2 [Example 141, 2-fluoro-6-[(2-{[1-glycyl-5-(methyloxy)-2,3-dihydro-1H-indol-6-yl]amino}-1H-pyrrolo[2,3-d]pyrimidin-4-yl)amino]benzamide] | 1.26 to 3.98 | 250 to 1000 | 250 to 1000 | > 500

Now from value to molecule:

IC50 (ALK) [nM] | IC50 (Colo205) [nM] | IC50 (NCI-H929) [nM] | IC50 [1] [nM] | Structure (SMILES)
0.251 to 1 | 250 to 1000 | < 250 | < 100 | COc1cc(N2CCN(C(C)C)CC2)c(F)cc1Nc1nc(Nc2cccc(F)c2C(N)=O)c2cc[nH]c2n1 [Example 48, 2-fluoro-6-[(2-{[5-fluoro-4-[4-(1-methylethyl)-1-piperazinyl]-2-(methyloxy)phenyl]amino}-1H-pyrrolo[2,3-d]pyrimidin-4-yl)amino]benzamide]
0.251 to 1 | < 250 | < 250 | 100 to 500 | CCCN1CCCC(c2ccc(Nc3nc(Nc4cc(F)ccc4C(N)=O)c4cc[nH]c4n3)c(OC)c2)C1 (stereo not shown) [Example 71, 4-fluoro-2-[(2-{[2-(methyloxy)-4-(1-propyl-3-piperidinyl)phenyl]amino}-1H-pyrrolo[2,3-d]pyrimidin-4-yl)amino]benzamide]
0.251 to 1 | < 250 | < 250 | < 100 | CCCN1CCC(c2ccc(Nc3nc(Nc4cc(F)ccc4C(N)=O)c4cc[nH]c4n3)c(OC)c2)CC1 [Example 73, 4-fluoro-2-[(2-{[2-(methyloxy)-4-(1-propyl-4-piperidinyl)phenyl]amino}-1H-pyrrolo[2,3-d]pyrimidin-4-yl)amino]benzamide]
0.251 to 1 | 250 to 1000 | < 250 | 100 to 500 | COc1cc(N2CCN(C(C)C)CC2)ccc1Nc1nc(Nc2cc(Cl)cc(F)c2C(N)=O)c2cc[nH]c2n1 [Example 93, 4-chloro-2-fluoro-6-[(2-{[4-[4-(1-methylethyl)-1-piperazinyl]-2-(methyloxy)phenyl]amino}-1H-pyrrolo[2,3-d]pyrimidin-4-yl)amino]benzamide]
0.251 to 1 | < 250 | < 250 | 100 to 500 | COc1cc(N2CCN(C(C)C)CC2)ccc1Nc1nc(Nc2ccc(F)c(F)c2C(N)=O)c2cc[nH]c2n1 [Example 94, 2,3-difluoro-6-[(2-{[4-[4-(1-methylethyl)-1-piperazinyl]-2-(methyloxy)phenyl]amino}-1H-pyrrolo[2,3-d]pyrimidin-4-yl)amino]benzamide]
0.251 to 1 | < 250 | < 250 | < 100 | COc1cc(C2CCN(C(C)C)CC2)ccc1Nc1nc(Nc2cc(F)c(F)cc2C(N)=O)c2cc[nH]c2n1 [Example 97, 4,5-difluoro-2-[(2-{[4-[1-(1-methylethyl)-4-piperidinyl]-2-(methyloxy)phenyl]amino}-1H-pyrrolo[2,3-d]pyrimidin-4-yl)amino]benzamide]
0.251 to 1 | < 250 | < 250 | < 100 | CCCN1CCC(c2ccc(Nc3nc(Nc4cc(F)c(F)cc4C(N)=O)c4cc[nH]c4n3)c(OC)c2)CC1 [Example 98, 4,5-difluoro-2-[(2-{[2-(methyloxy)-4-(1-propyl-4-piperidinyl)phenyl]amino}-1H-pyrrolo[2,3-d]pyrimidin-4-yl)amino]benzamide]
